Assays:
[1] = Calcium salts, physical/chemical attributes in orange juice, 450 mg/100 mL calcium load; assay type: physicochemical; details: for Brix/Acid Ratio: unfortified juice 18.3
Description: (§1) The flavor of orange juice, for example, can be characterized by a unique balance of sweetness resulting from the sugar content and tartness resulting from the acid content. A challenge of fortifying orange juice with nutritionally significant amounts of calcium is maintaining the sweet to tart balance. This balance can be expressed analytically as the Brix to acid ratio, as described above. The Brix component of the ratio is the measure of soluble solids in the composition often determined by a refractometer. The acid component can be determined by titration with a base such as sodium hydroxide. The Brix to acid ratio is an analytical representation or measure of the sweet to tart taste balance.
A variety of calcium salts, i.e., calcium components, were evaluated to determine their effects on the Brix-acid ratio. In this evaluation, orange juices fortified with different calcium salts were prepared at 450 mg/100 mL of calcium load.

[2] = Calcium salts, physical/chemical attributes in orange juice, 350 mg/100 mL calcium load; assay type: physicochemical; details: for Brix/Acid Ratio: unfortified juice 18.3
Description: as §1
A variety of calcium salts, i.e., calcium components, were again evaluated to determine their effects on the Brix-acid ratio but this time at 350 mg/100 mL calcium load.

Compound	Brix (48 Hours) [1]	Calcium - Juice (48 Hours) [1]	Titratable Acidity (%) (48 Hours) [1]	pH (48 Hours) [1]	Brix/Acid Ratio [1]	Brix (48 hrs) [2]	Calcium in Juice (48 hrs) [2]	Titratable Acidity (%) (48 hrs) [2]	pH (48 hrs) [2]	Brix/Acid Ratio [2]
N[C@@H](CCC(=O)[O-])C(=O)[O-].O.O.O.O.[Ca+2] [calcium L-glutamate tetrahydrate]	13.81	207 mg/100 mL	0.627%	4.47	22.0	13.41	161 mg/100 mL	0.621%	4.42	21.6
O.O.O=C([O-])[C@H](O)[C@@H](O)C(=O)[O-].[Ca+2] [calcium L-tartrate dihydrate]	12.02	140 mg/100 mL	0.545%	4.23	22.1	11.99	113 mg/100 mL	0.574%	4.17	20.9
O=C([O-])[O-].[Ca+2] [calcium carbonate]	12.44	200 mg/100 mL	0.099%	5.88	125.7	12.35	158 mg/100 mL	0.188%	5.15	65.7
O.O.[Ca+2].[Cl-].[Cl-] [calcium chloride dihydrate]	12.70	206 mg/100 mL	0.620%	3.84	20.5	12.54	163 mg/100 mL	0.618%	3.88	20.3
O=C[O-].O=C[O-].[Ca+2] [calcium formate]	12.59	206 mg/100 mL	0.620%	4.20	20.3	12.45	160 mg/100 mL	0.620%	4.18	20.1
O.O.O.O=C([O-])/C=C/C(=O)[O-].[Ca+2] [calcium fumarate trihydrate]	12.96	202 mg/100 mL	0.659%	4.01	19.7	13.56	158 mg/100 mL	0.643%	3.99	21.1
O.O=P([O-])([O-])OCC(O)CO.[Ca+2] (stereo not shown) [calcium glycerophosphate monohydrate]	12.73	187 mg/100 mL	0.598%	4.50	21.3	12.54	145 mg/100 mL	0.602%	4.42	20.8
CC(O)C(=O)[O-].CC(O)C(=O)[O-].O.O.O.O.O.[Ca+2] (stereo not shown) [calcium lactate pentahydrate]	13.01	204 mg/100 mL	0.657%	4.03	19.8	12.80	157 mg/100 mL	0.670%	4.01	19.1
O=C([O-])CC(O)C(=O)[O-].[Ca+2] (stereo not shown) [calcium malate]	12.80	213 mg/100 mL	0.641%	4.17	20.0	12.54	166 mg/100 mL	0.635%	4.15	19.7
O.O=C([O-])CCC(=O)[O-].[Ca+2] [calcium succinate monohydrate]	12.85	206 mg/100 mL	0.607%	4.66	21.2	12.64	161 mg/100 mL	0.606%	4.56	20.9
O.O=P([O-])(O)O.O=P([O-])(O)O.[Ca+2] [monocalcium phosphate monohydrate]	12.92	207 mg/100 mL	1.238%	3.69	10.4	12.53	164 mg/100 mL	1.083%	3.76	11.6
O=C([O-])CC(O)(CC(=O)[O-])C(=O)[O-].O=C([O-])CC(O)(CC(=O)[O-])C(=O)[O-].[Ca+2].[Ca+2].[Ca+2] [tri-calcium citrate]	12.08	177 mg/100 mL	0.630%	4.07	19.2	12.37	140 mg/100 mL	0.640%	4.06	19.3
O=P([O-])([O-])[O-].O=P([O-])([O-])[O-].[Ca+2].[Ca+2].[Ca+2] [tricalcium phosphate (fine), tricalcium phosphate]	12.30	197 mg/100 mL	0.484%	4.51	25.4	12.27	157 mg/100 mL	0.490%	4.49	25.0
O=P([O-])([O-])[O-].O=P([O-])([O-])[O-].[Ca+2].[Ca+2].[Ca+2] [tricalcium phosphate]	12.40	182 mg/100 mL	0.561%	4.37	22.1	12.39	147 mg/100 mL	0.530%	4.34	23.4
calcium ascorbate dihydrate	13.99	195 mg/100 mL	0.648%	4.23	21.6	13.41	160 mg/100 mL	0.618%	4.16	21.7
calcium aspartate	13.42	187 mg/100 mL	0.610%	4.28	22.0	13.11	159 mg/100 mL	0.617%	4.24	21.2

From patent US20070003671A1, “Two-part calcium fortified compositions and methods of making the same” (priority 2005, published 2007)
